Data published in publication PMC7284125, “Identification of annotated bioactive molecules that impair motility of the blood fluke Schistosoma mansoni” (International Journal for Parasitology: Drugs and Drug …, 2020).
Like-named read-outs stand apart in the source and are kept apart here. Residues, ends and D or L forms follow the SMILES beside them. *: point of attachment. Cbz = O=C(OCc1ccccc1)*

Assays:
[1] = test system: S. mansoni schistosomulae; test: Phenotypic primary screen assay on schistosomulae (phenotype; viability by methylene blue dye exclusion); assay type: cell-based; details: Schistosoma mansoni
[2] = test system: naïve Glo HEK293 cells (no receptor); test: cAMP luminescence (GloSensor) assay on naïve Glo HEK293 cells (no receptor); assay type: cell-based, human; details: for inhibition of EPN-evoked luminescence: 50 μM EPN; for effect on luminescence evoked by forskolin: 20 μM forskolin
Method: The SmGPR2 sequence previously identified ([El-Shehabi and Ribeiro, 2010]) was codon optimized for mammalian expression and subcloned in the vector pCI-neo (Addgene, USA) using the XbaI and NotI restriction enzymes. A FLAG fusion tag ([…]) was introduced at the N-terminal end of the receptor sequence. Stable transfection of HEK293 cells (ATCC; CRL-1573) was performed using the X-tremeGENE 9 DNA transfection reagent (Sigma Aldrich). Cells were then cultured at 37 °C, 5% CO2 in Opti-MEM supplemented with 5% FBS and maintained in 400 μg/mL G418 (Sigma Aldrich) for selection of transformants. […] All cell lines expressing S. mansoni GPCRs were then transfected with the GloSensor encoding plasmid p22F (Promega) and media was supplemented with 100 μg/mL hygromycin for stable expression (ThermoFisher).
(§1) Adherent HEK293 cells were seeded at a density of 5 x 10^4 cells/well (96-well plate) in Opti-MEM without FBS or antibiotics and incubated overnight at 37 °C and 5% CO2 prior to the assay. In place of the media, 100 μL HBSS supplemented with 0.1% bovine serum albumin (BSA), 500 μM 3-isobutyl-1-methylxanthine (IBMX, Sigma Aldrich), 20 mM HEPES (pH 7.4) and 1 mg/mL D-luciferin (Goldbio) was added to each well. After a 2 h incubation period at room temperature, luminescence background was recorded, and compounds and control ligands were added at 10X concentration. Immediately after compound addition, luminescence was read over a 45 min period to detect compounds stimulating cAMP release through receptor activation. […] For each assay, luminescence responses were recorded in triplicate and repeated with four independant cell batches. Compounds were also added to naïve Glo HEK293 cells (no receptor) and the robustness of the assay was calculated as: Z^'=1−3×(SDmax+SDmin)/Meanmax−Meanmin with max and min referring respectively to cells expressing GPCRs and Glo (no receptor) cells. Cellular viability was assessed using a CellTiter Glo 2.0 kit (Promega). Glo cells were exposed to 10 μM of each hit compound for 3 h in Opti-MEM at 37 °C, 5% CO2. An equimolar concentration of tamoxifen (Sigma Aldrich) was used as a positive control. 2X cell lysis media was then added and end-point luminescence recorded after a 10 min stabilization time.

S. mansoni adult worms = test: Motility assay on adult parasites (pixel displacement, relative to DMSO control); assay type: cell-based, Schistosoma mansoni; details: 10 μM; for Fractional motility: secondary screen
Outline: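 Unpaired adult worms from mice 6 weeks post-infection kept in OPTI-MEM with 5% dialyzed FBS and exposed to compounds at 1 and 10 μM for 24 h. Motility filmed 1 min at 10 frames/s, quantified by pixel displacement versus DMSO-treated worms; recovery followed up to five days after washout.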

[3] = test system: S. mansoni schistosomulae; test: Motility assay on schistosomulae (pixel displacement, relative to DMSO control); assay type: cell-based, Schistosoma mansoni; details: for activity at 1 µM: Schistosoma mansoni, read-out: Fractional motility
Outline: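 Mechanically transformed S. mansoni schistosomulae (200/well) in Opti-MEM with 5% dialyzed FBS were exposed to compounds at 1 and 10 μM for 24 h at 37 °C, 5% CO2. Motility filmed at 10 frames/s for 1 min and quantified by pixel displacement relative to DMSO-treated controls.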

[4] = test system: S. mansoni schistosomulae; test: Phenotypic primary screen assay on schistosomulae (phenotype; viability by methylene blue dye exclusion); assay type: cell-based, Schistosoma mansoni
Outline: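 Parasites lacking contraction/relaxation cycles and showing dark internal granulations counted as dead. Movement and body shape were compared with DMSO-treated controls under a stereo microscope at 24 h and at five days of exposure. Larvae came from infected snails shed under light for 2 h at 32 °C.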

SmD2 = SmD2 (Schistosoma mansoni, UniProt G4LUJ1); test: cell-based; assay type: cell-based
Chain of SmD2 (G4LUJ1 entry or part of it): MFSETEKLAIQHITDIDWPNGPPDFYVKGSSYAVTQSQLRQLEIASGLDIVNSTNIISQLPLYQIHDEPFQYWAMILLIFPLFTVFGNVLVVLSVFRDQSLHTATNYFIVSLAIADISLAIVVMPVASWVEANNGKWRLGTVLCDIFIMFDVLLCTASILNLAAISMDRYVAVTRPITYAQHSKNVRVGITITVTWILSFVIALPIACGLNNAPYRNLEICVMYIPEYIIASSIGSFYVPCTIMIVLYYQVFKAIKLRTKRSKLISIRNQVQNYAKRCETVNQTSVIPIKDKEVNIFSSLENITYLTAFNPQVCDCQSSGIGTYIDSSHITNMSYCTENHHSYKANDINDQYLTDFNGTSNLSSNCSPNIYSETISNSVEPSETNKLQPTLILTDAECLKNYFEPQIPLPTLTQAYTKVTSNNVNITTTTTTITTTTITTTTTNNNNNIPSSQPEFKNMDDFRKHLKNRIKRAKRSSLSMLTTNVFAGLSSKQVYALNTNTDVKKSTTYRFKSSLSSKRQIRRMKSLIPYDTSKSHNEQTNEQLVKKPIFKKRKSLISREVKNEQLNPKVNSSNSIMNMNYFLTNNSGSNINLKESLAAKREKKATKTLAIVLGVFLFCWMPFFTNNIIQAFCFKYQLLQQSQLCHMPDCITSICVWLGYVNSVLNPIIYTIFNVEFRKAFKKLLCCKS

schistosomes = test system: schistosomes; parameters: method as in Guerra-Sa et al., 2005; details: treated mice; ref Guerra-Sa et al., 2005; cited from earlier work
Sm5HTR = Sm5HTR (Schistosoma mansoni, UniProt G4V5G4); test: cAMP luminescence (GloSensor) assay, HEK293 cells expressing Sm5HTR; assay type: cell-based, S. mansoni; details: compound incubation followed by 50 μM 5-HT
Chain of Sm5HTR (G4V5G4 entry or part of it): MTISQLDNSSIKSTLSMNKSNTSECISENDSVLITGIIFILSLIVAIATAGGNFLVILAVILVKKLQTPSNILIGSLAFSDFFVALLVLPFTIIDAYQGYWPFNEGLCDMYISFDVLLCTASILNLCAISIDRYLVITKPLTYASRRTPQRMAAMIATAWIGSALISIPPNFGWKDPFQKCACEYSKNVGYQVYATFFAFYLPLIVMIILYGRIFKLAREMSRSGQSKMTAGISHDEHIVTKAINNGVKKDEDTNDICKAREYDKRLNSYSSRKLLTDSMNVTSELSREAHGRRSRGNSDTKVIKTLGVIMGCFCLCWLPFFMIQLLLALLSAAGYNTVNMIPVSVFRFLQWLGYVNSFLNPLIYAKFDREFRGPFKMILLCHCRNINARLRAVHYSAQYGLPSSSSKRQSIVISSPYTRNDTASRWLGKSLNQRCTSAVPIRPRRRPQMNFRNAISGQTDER

Glo HEK293 cells = test: Cellular viability, CellTiter Glo 2.0; assay type: cell-based, human; details: 10 μM, 3 h
Method: as §1, with “An equimolar concentration of tamoxifen (Sigma Aldrich) was used as a positive control.” left out

[5] = three-day-old schistosomulae, 10 μM, 24 h, calculated 5 days post compound exposure, read-out: Viability (%)
[6] = 120 h, schistosomulae, secondary screen, 24h exposure, read at D5, 1 µM
[7] = schistosomulae, secondary screen, 24h exposure, read at D1, 1 µM
[8] = schistosomulae, secondary screen, 24h exposure, read at D1, 10 µM
[9] = schistosomulae, secondary screen, 24h exposure, read at D5, 10 µM
[10] = three-day-old schistosomulae, 10 μM, 24 h, estimated 5 days post compound exposure
[11] = schistosomulae, 1h exposure, read at D1, 10 µM
[12] = schistosomulae, 1h exposure, read at D5, 10 µM
[13] = schistosomulae, 3h exposure, read at D1, 10 µM
[14] = schistosomulae, 3h exposure, read at D5, 10 µM
[15] = schistosomulae, 6h exposure, read at D1, 10 µM
[16] = schistosomulae, 6h exposure, read at D5, 10 µM

Row | Compound | viability at 10 µM [1, 5] [%] | inhibition of EPN-evoked luminescence [2] [%] | Fractional motility (S. mansoni adult worms; D1, Female adult worms) | Fractional motility (S. mansoni adult worms; D1, Male adult worms) | Fractional motility (S. mansoni adult worms; D5, Female adult worms) | Fractional motility (S. mansoni adult worms; D5, Male adult worms) | activity at 1 µM [3, 6] [%] | activity at 1 µM [3, 7] [%] | Fractional motility [3, 8] | Fractional motility [3, 9] | Phenotype [4, 10] | inhibition of Sm5HTR 5-HT-evoked signals (Sm5HTR) [%] | effect on luminescence evoked by forskolin [2] | Fractional motility [3, 11] | Fractional motility [3, 12] | Fractional motility [3, 13] | Fractional motility [3, 14] | Fractional motility [3, 15] | Fractional motility [3, 16] | also measured
1 | O=C1CCc2ccc(OCCCCN3CCN(c4cccc(Cl)c4Cl)CC3)cc2N1 [Aripiprazole] | 96.5 | ≥ 50 | 0.19 | 0.50 | -0.80 | -0.14 | -61 | -48 | -0.15 | -0.56 | granulated |  |  |  |  |  |  |  |  | 
2 | CNCC[C@H](Oc1cccc2ccccc12)c1cccs1 [Duloxetine] |  | ≥ 50 | 0.62 | 4.31 | 0.30 | 0.54 |  |  |  |  |  |  |  |  |  |  |  |  |  | IC50 (SmD2): 5.95 µM; inhibition at 10 µM (SmD2; HEK293, read-out: inhibition of EPN-evoked luminescence): ≥ 50%; viability at 10 µM [1]: 90%; activity at 1 µM ([3]; 120 h): -13%; Phenotype [4]: granulated
3 | CC(C)C[C@@H](C=O)NC(=O)[C@H](CC(C)C)NC(=O)[C@H](CC(C)C)NC(=O)OCc1ccccc1 [MG-132] (Cbz-Leu-Leu-Leu-aldehyde) |  |  |  |  |  |  |  |  |  |  |  |  |  |  |  |  |  |  |  | fewer parasites migrated to the lung compared to control animals (schistosomes): 65%
4 | O=[N+]([O-])C=Cc1ccc2c(c1)OCO2 [MNS, 3,4-methylenedioxy-β-nitrostyrene] | 43 |  | -0.14 | -0.40 | -0.83 | -0.55 | 103 | 241 | 2.46 | -0.0952 | blebbing, dark, granulated | ≥ 50 | significant decrease in luminescence | -0.95 | -0.06 | -0.96 | -0.87 | -0.83 | -0.87 | 
5 | Cc1ccc(S(=O)(=O)c2ccc([N+](=O)[O-])o2)cc1 [NSC697923] |  |  | 0.25 | 0.30 | -0.95 | -0.78 |  |  | 3.05 | -1.00 | dark, granulated | ≥ 50 | significant decrease in luminescence | -0.93 | -1.00 | -1.00 | -0.99 | -0.93 | -0.99 | motility phenotype in words (S. mansoni adult worms; adults, long-term after washout): Significant hypomotility; reduction of ATP released by cells (Glo HEK293 cells): 48.1 ± 5.7%; Fractional motility [3, 7]: -0.18; Fractional motility ([3]; schistosomulae, secondary screen, 24h exposure, read at D5, 1 µM): -0.90; Viability (%) ([4]; three-day-old schistosomulae, 10 μM, 24 h, calculated 5 days post compound exposure): 0%
